Patent US6071908A (priority 1995, dated 2000)
Structures can show the parent of a compound that is named as a salt. Where two headings read alike, the source gives them in different places.

Tests used:
[1] = test system: UV4 cells; experiment: cells; format: cell-based; conditions: Cricetulus griseus
[2] = test system: SKOV3 cells; experiment: cells; format: cell-based; conditions: Homo sapiens
[3] = UV4, light or radiation study, 4 h, read-out: IC50, P (unirradiated prodrug)
[4] = UV4, 4 h, read-out: IC50, E (authentic effector)
[5] = SK-OV-3, light or radiation study, 4 h, read-out: IC50, P (unirradiated prodrug)
[6] = SK-OV-3, 4 h, read-out: IC50, E (authentic effector)

With C[N+](C)(Cc1ccc([N+](=O)[O-])cc1)c1ccc2c(c1)N(S(C)(=O)=O)CC2CCl (centres unmarked) [Compound 11, 3-(chloromethyl)-6-[N,N-dimethyl-N-(4-nitrobenzyl)-ammonio]-1-(methanesulfonyl)indoline chloride] the IC50 [1, 3] was 1140 ± 122 µM.
With CN(C)c1ccc2c(c1)N(S(C)(=O)=O)CC2CCl (centres unmarked) [Compound 12, reference compound] the IC50 [1, 4] was 15 ± 6 µM.
For C[N+](C)(CCNC(=O)c1cccc2cc3ccccc3nc12)Cc1ccc([N+](=O)[O-])cc1 [Compound 15, 2-[N-(acridin-4-yl)carbonyl]aminoethyl-(dimethyl)-4-nitrobenzylammonium bromide], the IC50 [1, 3] was > 150 µM and the IC50 [2, 5] was > 150 µM.
Work on C[N+](C)(CCNC(=O)c1cccc2cc3ccccc3nc12)Cc1ccc([N+](=O)[O-])s1 [Compound 16, 2-[N-(acridin-4-yl)carbonyl]aminoethyl-(dimethyl)-(5-nitro-2-thienyl)methylammonium chloride] yielded an IC50 [1, 3] of 40 ± 8 µM and an IC50 [2, 5] of 169 ± 58 µM.
Work on Cc1cccc2c(N)c3cccc(C(=O)NCC[N+](C)(C)Cc4ccc([N+](=O)[O-])cc4)c3nc12 [Compound 17, 2-[N-(9-amino-5-methylacridin-4-yl)carbonyl]aminoethyl-(dimethyl)-4-nitrobenzylammonium bromide] yielded an IC50 [1, 3] of 0.78 µM and an IC50 [2, 5] of 4 ± 0.1 µM.
Cc1cccc2c(N)c3cccc(C(=O)NCC[N+](C)(C)Cc4ccccc4[N+](=O)[O-])c3nc12 [Compound 18, 2-[N-(9-amino-5-methylacridin-4-yl)carbonyl]aminoethyl-(dimethyl)-2-nitrobenzyl]ammonium chloride] gave an IC50 [1, 3] of 3.1 µM.
With Cc1cccc2c(N)c3cccc(C(=O)NCC[N+](C)(C)Cc4ccc([N+](=O)[O-])s4)c3nc12 [Compound 19, 2-[N-(9-amino-5-methylacridin-4-yl)carbonyl]aminoethyl-(dimethyl)-5-nitro-2-thienylmethylammonium chloride] the IC50 [1, 3] was 0.16 ± 0.03 µM.
With Cc1cccc2c(N)c3cccc(C(=O)NCC[N+](C)(C)Cc4nc(N5CCOCC5)sc4[N+](=O)[O-])c3nc12 [Compound 20, 2-[N-(9-amino-5-methylacridin-4-yl)carbonyl]aminoethyl-(dimethyl)-2-[4-morpholino-5-nitro-4-thiazolylmethyl]ammonium chloride] the IC50 [1, 3] was 1 ± 0.3 µM.
In the case of Cc1cccc2c(N)c3cccc(C(=O)NCC[N+](C)(C)Cc4ccc([N+](=O)[O-])n4C)c3nc12 [Compound 21, 2-(N-[9-amino-5-methylacridin-5-yl]carbonyl)aminoethyl-(dimethyl)[1-methyl-5-nitro-2-pyrrolyl]methylammonium chloride], the IC50 [1, 3] is reported as 2 ± 0.4 µM.
Cc1cccc2c(N)c3cccc(C(=O)NCC[N+](C)(C)Cc4c([N+](=O)[O-])ncn4C)c3nc12 [Compound 22, 2-(N-[9-amino-5-methylacridin-4-yl]carbonyl)aminoethyl-(dimethyl)-(1-methyl-4-nitro-5-imidazolyl)methylammonium chloride] was tested, and the IC50 [1, 3] was 1.9 ± 0.4 µM.
In the case of CN(C)CCNc1ccc(NCC[N+](C)(C)Cc2ccc([N+](=O)[O-])cc2)c2c1C(=O)c1c(O)ccc(O)c1C2=O [Compound 27, 1-[(2-(4-nitrobenzyl)dimethylammonium)ethylamino]-4-[(2-dimethylamino)ethylamino]-5,8-dihydroxy-9,10-anthracenedione chloride], the IC50 [1, 3] is reported as 0.27 ± 0.04 µM and the IC50 [2, 5] is reported as 9.7 µM.
CN(C)CCNC(=O)c1cccc2cc3ccccc3nc12 [Compound 37, N-[(dimethylamino)ethyl]acridine-4-carboxamide, reference compound] showed an IC50 [1, 4] of 0.49 ± 0.11 µM and an IC50 [2, 6] of 3.4 ± 0.8 µM.
In the case of Cc1cccc2c(N)c3cccc(C(=O)NCCN(C)C)c3nc12 [Compound 38, (N,N-dimethylaminoethyl)-9-amino-5-methylacridine-4-carboxamide, reference compound], the IC50 [1, 4] is reported as 0.011 µM and the IC50 [2, 6] is reported as 0.046 ± 0.002 µM.
CN(C)CCNc1ccc(NCCN(C)C)c2c1C(=O)c1c(O)ccc(O)c1C2=O [Compound 46, 1,4-bis[(2-dimethylamino)-ethylamino]-5,8-dihydroxy-9,10-anthracenedione, reference compound] gave an IC50 [1, 4] of 0.0021 µM and an IC50 [2, 6] of 0.074 ± 0.0004 µM.
NCCNCCCNC(=O)c1cccc2cc3ccccc3nc12 [Compound 47, N-[3-[(2-Aminoethyl)amino]propyl]acridine-4-carboxamide trihydrochloride, reference compound] showed an IC50 [1, 4] of 1.6 ± 0.4 µM and an IC50 [2, 6] of 1.6 ± 0.3 µM.
